In the data set the target is Cytochrome P450 3A4 (Homo sapiens, UniProt P08684). In words: Inhibition of CYP3A4 after 30 mins by fluorescence microplate reader assay. In kind it is ADME.
Chain of Cytochrome P450 3A4 (P08684 whole entry): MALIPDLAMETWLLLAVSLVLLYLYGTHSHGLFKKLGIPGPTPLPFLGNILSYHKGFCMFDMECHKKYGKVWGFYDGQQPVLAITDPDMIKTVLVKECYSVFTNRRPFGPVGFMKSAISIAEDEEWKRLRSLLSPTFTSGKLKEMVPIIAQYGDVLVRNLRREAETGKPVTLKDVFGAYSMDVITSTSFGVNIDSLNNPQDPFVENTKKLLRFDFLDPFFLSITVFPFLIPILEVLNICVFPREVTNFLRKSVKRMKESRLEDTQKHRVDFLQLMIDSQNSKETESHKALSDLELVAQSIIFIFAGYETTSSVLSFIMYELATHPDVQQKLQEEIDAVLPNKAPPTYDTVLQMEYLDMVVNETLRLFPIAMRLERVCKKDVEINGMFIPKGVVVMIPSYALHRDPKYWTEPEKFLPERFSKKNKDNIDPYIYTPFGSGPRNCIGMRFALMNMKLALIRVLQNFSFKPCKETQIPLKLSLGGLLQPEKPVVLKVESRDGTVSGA

The term IC50 denotes the concentration that inhibits the measured activity by half. Turning to `C/C(=C\COc1c2ccoc2cc2oc(=O)ccc12)CC[C@@H](O)C(C)(C)O`, under “read-out: IC50”, the half-inhibitory concentration (IC50) came out at 1.58 µM.

Take `CC(C)=CCC/C(C)=C/COc1c2ccoc2cc2oc(=O)ccc12` [BERGAMOTTIN]: the concentration for half-maximal inhibition (IC50) (read-out: IC50) was found to be 2.42 µM.

As for `CC(C)=CCC/C(C)=C/COc1ccc2ccc(=O)oc2c1` [AURAPTENE], the half-inhibitory concentration (IC50) entry was “Not Active”.

`CCCCCCCCCC1O[C@H](CC/C(C)=C/COc2c3ccoc3cc3oc(=O)ccc23)C(C)(C)O1` (some centres not stated): the IC50 (read-out: IC50) was determined as 0.27 µM.

Take `CCCCCCCC1O[C@H](CC/C(C)=C/COc2c3ccoc3cc3oc(=O)ccc23)C(C)(C)O1` (some centres not stated): the IC50 (read-out: IC50) came out at 0.13 µM.

For the compound `CCCCCCCCCC1O[C@H](CC/C(C)=C/COc2ccc3ccc(=O)oc3c2)C(C)(C)O1` (some centres not stated), the 50% inhibitory concentration (IC50) entry is “Not Active”.

`C/C(=C\COc1ccc2ccc(=O)oc2c1)CC[C@@H](O)C(C)(C)O` [R-(+)-MARMIN]: the IC50 result is reported as “Not Active”.

The values above are taken from ChEMBL document CHEMBL1154233, “Minor furanocoumarins and coumarins in grapefruit peel oil as inhibitors of human cytochrome P450 3A4” (J Nat Prod, 2009).
